{"source": "patent US20260354378A1", "about": "“OIL-IN-WATER EMULSION FORMULATION, A PROCESS FOR ITS PREPARATION AND ITS USE AS HERBICIDE” (priority 2022, published 2026)", "key": {"[1]": {"assay": "Solubility in the organic solvent Solvesso 200ND", "type": "physicochemical", "details": "room temperature", "method": "(§1) As a preliminary step, solubility tests were performed to determine the ability of Aminopyralid potassium salt used as herbicide B to dissolve in the organic solvent Solvesso 200ND and the oil phase of the emulsion disclosed in US 2011/0092367 A1, page 11, paragraphs [0141] and [0142].\nThe solubility was measured in a test tube at room temperature. 0.10 g of Aminopyralid potassium salt was placed in the test tube. First, 1 g of the organic solvent (Solvesso 200 ND) was added. The amount of the organic solvent (Solvesso 200 ND) was then increased in several steps to 10 g. […] The solubility of Aminopyralid Potassium salt in Solvesso 200ND was visually determined to be less than 1%."}, "[2]": {"assay": "Solubility in the oil phase of the emulsion of US 2011/0092367 A1", "type": "physicochemical", "details": "Solvesso 200 ND, Wettol EM 1, Wettol EM 31 per Table 9", "method": "as §1\nThe organic solvent (Solvesso 200 ND), calcium dodecylbenzene sulfonate (Wettol EM 1) and castor oil ethoxylate (Wettol EM 31) were mixed in the amounts given in Table 9. After mixing, it was not soluble in said mixture. After further adding dimethenamid-P in the amount given in Table 9, solubility of the Aminopyralid potassium salt could not be increased. In summary, Aminopyralid potassium salt (herbicide B) was not soluble in the oil phase of the emulsion as disclosed in US 2011/0092367 A1 (see page 11, paragraphs [0141] and [0142])."}}, "note": "Structures can show the parent of a compound that is named as a salt."}
{"smiles": "Nc1cc(Cl)nc(C(=O)O)c1Cl", "note": "[Aminopyralid potassium salt, 4-amino-3,6-dichloro-2-pyridinecarboxylic acid]", "values": [{"measurement": "Solubility in Solvesso 200 ND (visual observation)", "setting": "[1]; 0.10 g in 1 g to 10 g solvent, magnetic stirrer", "result": "poor solubility"}, {"measurement": "Solubility in Solvesso 200ND", "setting": "[1]; visually determined", "result": "less than 1%"}, {"measurement": "Solubility in the oil phase of the emulsion of US 2011/0092367 A1", "setting": "[2]", "result": "not soluble"}]}
